Results: PubChem BioAssay (NCI)
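Method: 48-hour compound exposure of cells in 96-well plates, five concentrations, linear interpolation of endpoints. GI50 is the concentration that inhibits growth by half. TGI marks complete inhibition of growth.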

Legend:
Experiment in all cases: NCI tumour cell line growth inhibition, 48 h
UO-31 renal = test system: UO-31 renal
HOP-92 NSCLC = test system: HOP-92 NSCLC
HS 578T breast = test system: HS 578T breast
SF-539 CNS = test system: SF-539 CNS
MDA-MB-231 breast = test system: MDA-MB-231 breast
RXF 393 renal = test system: RXF 393 renal
PC-3 prostate = test system: PC-3 prostate
RPMI-8226 leukemia = test system: RPMI-8226 leukemia
NCI-H23 lung = test system: NCI-H23 lung
COLO 205 colon = test system: COLO 205 colon
SW-620 colon = test system: SW-620 colon
M14 melanoma = test system: M14 melanoma
NCI-H460 lung = test system: NCI-H460 lung
OVCAR-3 ovarian = test system: OVCAR-3 ovarian
UACC-257 melanoma = test system: UACC-257 melanoma
SK-MEL-28 melanoma = test system: SK-MEL-28 melanoma
HCT-15 colon = test system: HCT-15 colon
SN12C renal = test system: SN12C renal
HOP-62 NSCLC = test system: HOP-62 NSCLC
SF-295 CNS = test system: SF-295 CNS
SK-OV-3 ovarian = test system: SK-OV-3 ovarian
SF-268 CNS = test system: SF-268 CNS
A498 renal = test system: A498 renal
SNB-19 CNS = test system: SNB-19 CNS
ACHN renal = test system: ACHN renal
MCF7 breast = test system: MCF7 breast
LOX IMVI melanoma = test system: LOX IMVI melanoma
NCI-H522 lung = test system: NCI-H522 lung
SNB-75 CNS = test system: SNB-75 CNS
NCI/ADR-RES ovarian = test system: NCI/ADR-RES ovarian
HL-60(TB) leukemia = test system: HL-60(TB) leukemia
IGROV1 ovarian = test system: IGROV1 ovarian
HCC-2998 colon = test system: HCC-2998 colon
SR leukemia = test system: SR leukemia
CAKI-1 renal = test system: CAKI-1 renal
T-47D breast = test system: T-47D breast
786-0 renal = test system: 786-0 renal
OVCAR-8 ovarian = test system: OVCAR-8 ovarian
A549 NSCLC = test system: A549 NSCLC
HT29 colon = test system: HT29 colon
SK-MEL-5 melanoma = test system: SK-MEL-5 melanoma
CCRF-CEM leukemia = test system: CCRF-CEM leukemia
TK-10 renal = test system: TK-10 renal
HCT-116 colon = test system: HCT-116 colon
OVCAR-5 ovarian = test system: OVCAR-5 ovarian
BT-549 breast = test system: BT-549 breast
U251 CNS = test system: U251 CNS
MDA-MB-435 = test system: MDA-MB-435
DU-145 prostate = test system: DU-145 prostate
MOLT-4 leukemia = test system: MOLT-4 leukemia
NCI-H226 lung = test system: NCI-H226 lung
KM12 colon = test system: KM12 colon
K-562 leukemia = test system: K-562 leukemia
MALME-3M melanoma = test system: MALME-3M melanoma
EKVX NSCLC = test system: EKVX NSCLC
SK-MEL-2 melanoma = test system: SK-MEL-2 melanoma
UACC-62 melanoma = test system: UACC-62 melanoma
OVCAR-4 ovarian = test system: OVCAR-4 ovarian

## CN(C)S(=O)(=O)c1cccc(C(=O)Nc2nc(-c3ccc(F)c(F)c3)cs2)c1
UO-31 renal
  GI50: 9.09 µM
  TGI: > 100 µM
HOP-92 NSCLC
  GI50: 9.41 µM
  TGI: > 74.3 µM
HS 578T breast
  GI50: 14.2 µM
  TGI: 91 µM
SF-539 CNS
  GI50: 15.3 µM
  TGI: 58 µM
MDA-MB-231 breast
  GI50: 20.6 µM
  TGI: > 100 µM
RXF 393 renal
  GI50: 12.4 µM
  TGI: > 81.5 µM
PC-3 prostate
  GI50: 5.96 µM
  TGI: > 100 µM
RPMI-8226 leukemia
  GI50: 4.51 µM
  TGI: > 29.4 µM
NCI-H23 lung
  GI50: 10.3 µM
  TGI: > 100 µM
COLO 205 colon
  GI50: 35.6 µM
  TGI: > 100 µM
SW-620 colon
  GI50: 47.9 µM
  TGI: > 100 µM
M14 melanoma
  GI50: 23.5 µM
  TGI: > 100 µM
NCI-H460 lung
  GI50: 12.8 µM
  TGI: > 100 µM
OVCAR-3 ovarian
  GI50: 18.4 µM
  TGI: > 95.4 µM
UACC-257 melanoma
  GI50: 6.24 µM
  TGI: > 100 µM
SK-MEL-28 melanoma
  GI50: 18.8 µM
  TGI: > 100 µM
HCT-15 colon
  GI50: > 40.4 µM
  TGI: > 100 µM
SN12C renal
  GI50: 25.9 µM
  TGI: > 100 µM
HOP-62 NSCLC
  GI50: 12.7 µM
  TGI: > 100 µM
SF-295 CNS
  GI50: 2.58 µM
  TGI: 26.4 µM
SK-OV-3 ovarian
  GI50: 35.7 µM
  TGI: > 100 µM
SF-268 CNS
  GI50: 13.9 µM
  TGI: > 100 µM
A498 renal
  GI50: 16.9 µM
  TGI: > 100 µM
SNB-19 CNS
  GI50: 35.4 µM
  TGI: > 100 µM
ACHN renal
  GI50: 10.5 µM
  TGI: > 100 µM
MCF7 breast
  GI50: 6.01 µM
  TGI: > 65 µM
LOX IMVI melanoma
  GI50: 24 µM
  TGI: > 100 µM
NCI-H522 lung
  GI50: 5.71 µM
  TGI: > 100 µM
SNB-75 CNS
  GI50: 4.96 µM
  TGI: > 60.8 µM
NCI/ADR-RES ovarian
  GI50: 5.32 µM
  TGI: > 100 µM
HL-60(TB) leukemia
  GI50: 6.08 µM
  TGI: > 100 µM
IGROV1 ovarian
  GI50: 28 µM
  TGI: > 96.4 µM
HCC-2998 colon
  GI50: 58.9 µM
  TGI: > 100 µM
SR leukemia
  GI50: 6.17 µM
  TGI: > 100 µM
CAKI-1 renal
  GI50: 10.9 µM
  TGI: > 75.9 µM
T-47D breast
  GI50: 3.77 µM
  TGI: > 100 µM
786-0 renal
  GI50: 18.8 µM
  TGI: 90.4 µM
OVCAR-8 ovarian
  GI50: 8.28 µM
  TGI: > 100 µM
A549 NSCLC
  GI50: 13.2 µM
  TGI: > 100 µM
HT29 colon
  GI50: 14 µM
  TGI: > 100 µM
SK-MEL-5 melanoma
  GI50: 3.81 µM
  TGI: > 25.2 µM
CCRF-CEM leukemia
  GI50: 10.7 µM
  TGI: > 100 µM
TK-10 renal
  GI50: 18.1 µM
  TGI: > 100 µM
HCT-116 colon
  GI50: 7.62 µM
  TGI: > 100 µM
OVCAR-5 ovarian
  GI50: 98.4 µM
  TGI: > 100 µM
BT-549 breast
  GI50: 3.88 µM
  TGI: > 27.4 µM
U251 CNS
  GI50: 11.5 µM
  TGI: > 74 µM
MDA-MB-435
  GI50: 5.41 µM
  TGI: > 100 µM
DU-145 prostate
  GI50: 25.9 µM
  TGI: > 100 µM
MOLT-4 leukemia
  GI50: 3.52 µM
  TGI: > 55.2 µM
NCI-H226 lung
  GI50: 9.32 µM
  TGI: 98.3 µM
KM12 colon
  GI50: 24.2 µM
  TGI: > 100 µM
K-562 leukemia
  GI50: 5.1 µM
  TGI: > 100 µM
MALME-3M melanoma
  GI50: 18.6 µM
  TGI: 99.4 µM
EKVX NSCLC
  GI50: 4 µM
  TGI: > 76.2 µM
SK-MEL-2 melanoma
  GI50: 19.4 µM
  TGI: > 100 µM
UACC-62 melanoma
  GI50: 7.81 µM
  TGI: > 100 µM
OVCAR-4 ovarian
  GI50: 4.62 µM
  TGI: > 84.1 µM
